# Reference: US20200341014A1, “PD Marker of Hepatocyte Growth Factor (HGF)” (EISAI R&D MANAGEMENT CO., LTD., priority 2016, published 2020)
# Assays:
# ApoA4 protein [1] = test: Western blot quantification of serum ApoA4 protein in mice administered rh-HGF and c-Met inhibitor (Example 2); type: in vivo, mouse; conditions: rh-HGF 0.5-15 mg/kg intravenous, 24 hours; FIG. 3
# Protocol: To BALB/cAnNCrlCrlj male 6 weeks-old mice (CHARLES RIVER JAPAN), c-Met inhibitor PF-04217903 (50 mg/kg) (Selleck Chemicals #S1094, lot. 05) or vehicle (5% DMSO, 10% Tween80, 6.7 mmol/L aqueous hydrochloric acid solution) was orally administered at a dose of 10 mL/kg, and after 1 hour, rh-HGF (0.5, 1.5, 5.0, or 15 mg/kg) or PBS was intravenously administered. […] After euthanization, hepatic tissue was collected and immersed in RNA later (Ambion, #AM7021). Serum was collected from the blood collected.
# Using the above serum, ApoA4 protein was quantified by Western blot method. To the serum diluted 200-folds with PBS (−) (Wako), ¼ volume of the electrophoresis buffer solution (313 mM Tris-HCl (pH 6.8), 10% SDS, 30% Glycerol, 0.2 mg/mL Bromo-phenol blue, and 25% 2-Mercaptoethnol) was added (the final dilution of the serum will be 250-folds), and this was subjected to heat treatment at 95° C. for 3 minutes. […] After washing three times with the above wash solution, chemiluminescence solution SuperSignal West Dura Extended Duration Substrate (Thermo Scientific) was added to allow luminescence, and ApoA4 protein was detected with LAS-4000 (FUJIFILM).
# For the results of serum ApoA4 protein quantification, Dunnett's multiple comparison test was carried out between the control and the rh-HGF administration groups.
# Jo2 liver failure model = test: Severity of hepatopathy (AST, ALT, PT) in Jo2 liver failure model; type: in vivo, mouse; conditions: Jo2 liver failure mice, rh-HGF into tail vein 1 hour before anti-Fas MAb, 5 hours after MAb; FIG. 4
# Protocol: To BALB/cAnNCrlCrlj male 6 weeks-old mice (CHARLES RIVER JAPAN), 0.23 mg/kg of anti-Fas monoclonal antibody (clone name: Jo2, BD Pharmingen, #554254, lot#3269634) was administered once into the tail vein to create an acute liver failure model. To this model, rh-HGF dissolved in PBS was administered into the tail vein at 0.15, 1.5, or 15 mg/kg 1 hour before administration of anti-Fas monoclonal antibody. For the control group (Control), PBS was administered into the tail vein. Five hours after the administration of anti-Fas monoclonal antibody, mice were retained under anesthesia by 3% isoflurane inhalation, blood was collected from the vein located behind the jaw bone, and Prothrombin time (PT) was measured with CoaguChek XS (Roche-diagnostics, #ES350009) and PT Test strips (Roche-diagnostics, #ES350054). […] The measurement of Aspartate Aminotransferase (AST) and Alanine transaminase (ALT) in the serum was each performed with L-type Wako AST·J2 (Wako) kit and L-type Wako ALT·J2 (Wako) kit and an automatic analysis device (Hitachi 7180 Automatic Analyzer, Hitachi High-Technologies). With the measurement results of PT, AST, ALT, and serum ApoA4 protein, Dunnett's multiple comparison test was carried out between the control and the rh-HGF administration groups (FIG. 4).
# ApoA4 protein [2] = test: Western blot quantification of serum ApoA4 protein in Jo2 liver failure mice; type: in vivo, mouse; conditions: rh-HGF at 1.5, 5, or 15 mg/kg, FIG. 4
# Protocol: To BALB/cAnNCrlCrlj male 6 weeks-old mice (CHARLES RIVER JAPAN), 0.23 mg/kg of anti-Fas monoclonal antibody (clone name: Jo2, BD Pharmingen, #554254, lot#3269634) was administered once into the tail vein to create an acute liver failure model. […] For the control group (Control), PBS was administered into the tail vein.
# Quantification of serum ApoA4 protein was carried out according to Example 2.
# With the measurement results of PT, AST, ALT, and serum ApoA4 protein, Dunnett's multiple comparison test was carried out between the control and the rh-HGF administration groups (FIG. 4).
# human ApoA4 mRNA = test: Real-time PCR of human ApoA4 mRNA in human primary culture hepatocytes treated with rh-HGF; type: cell-based; conditions: human primary culture hepatocytes, rh-HGF 100, 300 or 1000 ng/mL, 24 hours; FIG. 5
# Protocol: Human primary culture hepatocytes seeded in a 24-well plate (3.8×10^5 cells/well, Biopredic International, #HEP220-MW24) were cultured for three days in Incubation Medium (product name: Biopredic International, #MIL214), then c-Met inhibitor PF-04217903 (final concentration 100 nmol/L) (Selleck Chemicals, #S1094, lot. 05) or vehicle (DMSO) was added, and after 1 hour, rh-HGF (final concentration 100, 300, or 1000 ng/mL) or (Incubation Medium) for the control group (Control) was added.
# From hepatocytes 24 hours after addition of rh-HGF, total RNA was purified with RNeasy Mini Kit (QIAGEN, #74104) and RNase-Free DNase set (QIAGEN, #79254), and RNA concentration was measured by absorbance. The purified total RNA was reverse transcripted using High-Capacity cDNA Reverse Transcription Kit with RNase Inhibitor (Applied Biosystems, #4374966) to create cDNA. With the cDNA obtained as the template, the amount of ApoA4 mRNA expressed was examined by real-time PCR method. 18S rRNA was used as the internal control for examination. […]
# With the results of ApoA4 mRNA quantification, Dunnett's multiple comparison test was carried out between the control and the rh-HGF administration groups.
substance,measurement,setting,value
"rh-HGF: human HGF recombinantly expressed in CHO cells, activated with hepatocyte growth factor activator recombinantly expressed in CHO cells",ApoA4 protein expression in the serum,ApoA4 protein [1],induction of ApoA4 protein expression
same,Effect on elevation of ALT,Jo2 liver failure model,strongly inhibited
same,Effect on elevation of AST,Jo2 liver failure model,strongly inhibited
same,Effect on extension of PT (Prothrombin time),Jo2 liver failure model,strongly inhibited
same,Blood ApoA4 protein value,ApoA4 protein [2],significant elevation
same,Human ApoA4 mRNA expression,human ApoA4 mRNA,strongly enhanced
